Experimental data reported in patent US9260425B2 (Genetech, Inc., priority 2011, dated 2016).

Molecular target: Pim-1 (Homo sapiens (Human), UniProt P11309)
Experiment: Pim kinase binding activity assay (Example 901), PIM-1 enzyme, Caliper microfluidic peptide phosphorylation
Format: biochemical
Conditions: 20 pM PIM-1, 10 μM ATP, 1 μM FAM-peptide, 90 minutes at room temperature
In short: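 PIM-1 at 20 pM phosphorylated 1 μM FAM-labelled Pim peptide with 10 μM ATP in HEPES pH 7.2, MgCl2, Tween 20 and DTT for 90 min at room temperature. EDTA stopped the reaction, and product and substrate were resolved by microfluidic electrophoresis (ex 488/em 530 nm). Ki was derived from substrate conversion.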

Chain of Pim-1 (P11309 whole entry): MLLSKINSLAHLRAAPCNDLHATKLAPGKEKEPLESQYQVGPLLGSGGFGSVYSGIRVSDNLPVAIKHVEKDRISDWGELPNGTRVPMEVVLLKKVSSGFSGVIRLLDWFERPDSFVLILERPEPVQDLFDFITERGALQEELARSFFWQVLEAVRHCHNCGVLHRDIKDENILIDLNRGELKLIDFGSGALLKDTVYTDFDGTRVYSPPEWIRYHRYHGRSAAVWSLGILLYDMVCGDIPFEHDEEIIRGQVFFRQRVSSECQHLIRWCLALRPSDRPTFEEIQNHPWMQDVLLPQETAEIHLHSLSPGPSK

`C=C(C)c1ccc(-c2n[nH]c3cnc(-c4cccnc4)cc23)nc1N1CCC[C@H](N)C1` [Example 308, (S)-1-(3-(prop-1-en-2-yl)-6-(5-(pyridin-3-yl)-1H-pyrazolo[3,4-c]pyridin-3-yl)pyridin-2-yl)piperidin-3-amine] was tested, and the Ki was 0.01 nM.
With `CC(C)n1cc(-c2cc3c(-c4cccc(N5CCNCC5)n4)n[nH]c3cn2)cn1` [Example 389, 5-(1-isopropyl-1H-pyrazol-4-yl)-3-(6-(piperazin-1-yl)pyridin-2-yl)-1H-pyrazolo[3,4-c]pyridine] the Ki was 0.213 nM.
For `Cc1n[nH]c2cnc(-c3ccn[nH]3)cc12` [Example 103, 3-methyl-5-(1H-pyrazol-5-yl)-1H-pyrazolo[3,4-c]pyridine], the Ki was 1300 nM.
`CC(C)(CN)Cn1cc(-c2n[nH]c3cnc(-c4cccnc4)cc23)ccc1=O` [Example 379, 1-(3-amino-2,2-dimethylpropyl)-5-(5-(pyridin-3-yl)-1H-pyrazolo[3,4-c]pyridin-3-yl)pyridin-2(1H)-one] was tested, and the Ki was 1.29 nM.
Compound `O=C1CCCCN1c1n[nH]c2cnc(-c3cccnc3)cc12` [Example 260, 1-(5-(pyridin-3-yl)-1H-pyrazolo[3,4-c]pyridin-3-yl)piperidin-2-one] has a Ki of 1100 nM.
`N[C@H]1CCCN(c2cccc(-c3n[nH]c4cnc(N5CCOC5=O)cc34)n2)C1` [Example 374, (S)-3-(3-(6-(3-aminopiperidin-1-yl)pyridin-2-yl)-1H-pyrazolo[3,4-c]pyridin-5-yl)oxazolidin-2-one] was tested, and the Ki was 85 nM.
`Cn1cc(-c2cc3c(-c4cccc(O[C@@H]5CCCNC5)n4)n[nH]c3cn2)cn1` [Example 264, (R)-5-(1-methyl-1H-pyrazol-4-yl)-3-(6-(piperidin-3-yloxy)pyridin-2-yl)-1H-pyrazolo[3,4-c]pyridine] gave a Ki of 0.27 nM.
Work on `Fc1ccccc1-c1n[nH]c2cnc(-c3cncs3)cc12` [Example 348, 5-(3-(2-fluorophenyl)-1H-pyrazolo[3,4-c]pyridin-5-yl)thiazole] yielded a Ki of 26.8 nM.
Work on `CCc1ccnc(-c2n[nH]c3cnc(-c4cnn(CC)c4)cc23)c1` [Example 493, 5-(1-ethyl-1H-pyrazol-4-yl)-3-(4-ethylpyridin-2-yl)-1H-pyrazolo[3,4-c]pyridine] yielded a Ki of 43.6 nM.
In the case of `CC1CN(c2cccc(-c3n[nH]c4cnc(-c5cnn(CCF)c5)cc34)n2)CCN1` (stereo not drawn) [Example 516, 5-(1-(2-fluoroethyl)-1H-pyrazol-4-yl)-3-(6-(3-methylpiperazin-1-yl)pyridin-2-yl)-1H-pyrazolo[3,4-c]pyridine], the Ki is reported as 0.024 nM.
With `c1ccc(-c2n[nH]c3cnc(-c4ccoc4)cc23)cc1` [Example 185, 5-(furan-3-yl)-3-phenyl-1H-pyrazolo[3,4-c]pyridine] the Ki was 70.9 nM.
For `Fc1ccccc1-c1n[nH]c2cnc(-c3cnccc3OC3CCNCC3)cc12` [Example 195, 3-(2-fluorophenyl)-5-(4-(piperidin-4-yloxy)pyridin-3-yl)-1H-pyrazolo[3,4-c]pyridine], the Ki was 0.567 nM.
Compound `Cn1cc(-c2cc3c(-c4cccc(N5CCC(N)(C(F)(F)F)C5)n4)n[nH]c3cn2)cn1` (stereo not drawn) [Example 286, 1-(6-(5-(1-methyl-1H-pyrazol-4-yl)-1H-pyrazolo[3,4-c]pyridin-3-yl)pyridin-2-yl)-3-(trifluoromethyl)pyrrolidin-3-amine] has a Ki of 0.093 nM.
In the case of `N#Cc1cc(-c2n[nH]c3cnc(-c4cccnc4)cc23)cc(N2CCNCC2)c1` [Example 240, 3-(piperazin-1-yl)-5-(5-(pyridin-3-yl)-1H-pyrazolo[3,4-c]pyridin-3-yl)benzonitrile], the Ki is reported as 5.28 nM.
`c1cncc(-c2cc3c(C4CCCC4)n[nH]c3cn2)c1` [Example 228, 3-cyclopentyl-5-(pyridin-3-yl)-1H-pyrazolo[3,4-c]pyridine] showed a Ki of 43 nM.
With `N#CCc1cc2c(-c3cccc(N4CCNCC4)n3)n[nH]c2cn1` [Example 235, 2-(3-(6-(piperazin-1-yl)pyridin-2-yl)-1H-pyrazolo[3,4-c]pyridin-5-yl)acetonitrile] the Ki was 583 nM.
`Cc1ccc(-c2n[nH]c3cnc(-c4cccnc4)cc23)nc1` [Example 275, 3-(5-methylpyridin-2-yl)-5-(pyridin-3-yl)-1H-pyrazolo[3,4-c]pyridine] was tested, and the Ki was 6.92 nM.
`NC(=O)Cn1cc(-c2cc3c(-c4cccc(F)n4)n[nH]c3cn2)cn1` [Example 178, 2-(4-(3-(6-fluoropyridin-2-yl)-1H-pyrazolo[3,4-c]pyridin-5-yl)-1H-pyrazol-1-yl)acetamide] showed a Ki of 17.6 nM.
Compound `c1cncc(-c2cc3c(-c4cnn(CC5CCNCC5)c4)n[nH]c3cn2)c1` [Example 186, 3-(1-(piperidin-4-ylmethyl)-1H-pyrazol-4-yl)-5-(pyridin-3-yl)-1H-pyrazolo[3,4-c]pyridine] has a Ki of 0.717 nM.
Compound `Cc1ccc(-c2n[nH]c3cnc(-c4cccnc4)cc23)nc1N1CC[C@@H](O)C1` [Example 306, (R)-1-(3-methyl-6-(5-(pyridin-3-yl)-1H-pyrazolo[3,4-c]pyridin-3-yl)pyridin-2-yl)pyrrolidin-3-ol] has a Ki of 0.22 nM.
`Cn1cc(-c2cc3c(-c4cccc(NCC5CCNCC5)n4)n[nH]c3cn2)cn1` [Example 183, 6-(5-(1-methyl-1H-pyrazol-4-yl)-1H-pyrazolo[3,4-c]pyridin-3-yl)-N-(piperidin-4-ylmethyl)pyridin-2-amine] showed a Ki of 0.426 nM.
For `CCn1cc(-c2cc3c(-c4cccc(NC5CCCC(N)C5)n4)n[nH]c3cn2)cn1` (stereo not drawn) [Example 461, N1-(6-(5-(1-ethyl-1H-pyrazol-4-yl)-1H-pyrazolo[3,4-c]pyridin-3-yl)pyridin-2-yl)cyclohexane-1,3-diamine], the Ki was 0.0593 nM.
In the case of `N[C@@H]1CCCN(c2nc(-c3n[nH]c4cnc(-c5cccnc5)cc34)ccc2Br)CC1` [Example 313, (R)-1-(3-bromo-6-(5-(pyridin-3-yl)-1H-pyrazolo[3,4-c]pyridin-3-yl)pyridin-2-yl)azepan-4-amine], the Ki is reported as 0.028 nM.
`c1ccc(-c2n[nH]c3cnc(-n4cncn4)cc23)cc1` [Example 142, 3-phenyl-5-(1H-1,2,4-triazol-1-yl)-1H-pyrazolo[3,4-c]pyridine] was tested, and the Ki was 306 nM.
`Cn1cc(-c2cc3c(-c4cccc(N5CCC(CN)CC5)n4)n[nH]c3cn2)cn1` [Example 182, (1-(6-(5-(1-methyl-1H-pyrazol-4-yl)-1H-pyrazolo[3,4-c]pyridin-3-yl)pyridin-2-yl)piperidin-4-yl)methanamine] was tested, and the Ki was 0.085 nM.
Work on `Cn1cc(-c2cc3c(-c4cccc(N5CCOCC5)n4)n[nH]c3cn2)cn1` [Example 420, 4-(6-(5-(1-methyl-1H-pyrazol-4-yl)-1H-pyrazolo[3,4-c]pyridin-3-yl)pyridin-2-yl)morpholine] yielded a Ki of 0.368 nM.
`Fc1ccccc1-c1n[nH]c2cnc(-c3cncnc3)cc12` [Example 138, 3-(2-fluorophenyl)-5-(pyrimidin-5-yl)-1H-pyrazolo[3,4-c]pyridine] gave a Ki of 577 nM.
`CN1CCN(c2nc(-c3n[nH]c4cnc(-c5cnn(C)c5)cc34)ccc2Br)CC1` [Example 402, 3-(5-bromo-6-(4-methylpiperazin-1-yl)pyridin-2-yl)-5-(1-methyl-1H-pyrazol-4-yl)-1H-pyrazolo[3,4-c]pyridine] gave a Ki of 0.07 nM.
In the case of `C1=C(c2n[nH]c3cnc(-c4cccnc4)cc23)CCO1` [Example 284, 3-(4,5-dihydrofuran-3-yl)-5-(pyridin-3-yl)-1H-pyrazolo[3,4-c]pyridine], the Ki is reported as 10.6 nM.
`CCn1cc(-c2cc3c(-c4cccc(N5CCNC(C)(C)C5)n4)n[nH]c3cn2)cn1` [Example 446, 3-(6-(3,3-dimethylpiperazin-1-yl)pyridin-2-yl)-5-(1-ethyl-1H-pyrazol-4-yl)-1H-pyrazolo[3,4-c]pyridine] gave a Ki of 0.029 nM.
`c1cc(-c2n[nH]c3cnc(C4CCCOC4)cc23)nc(N2CCNCC2)c1` (stereo not drawn) [Example 181, 3-(6-(piperazin-1-yl)pyridin-2-yl)-5-(tetrahydro-2H-pyran-3-yl)-1H-pyrazolo[3,4-c]pyridine] showed a Ki of 3.96 nM.
For `N[C@H]1CCCCN(c2cccc(-c3n[nH]c4cnc(-c5cnn(CCF)c5)cc34)n2)C1` [Example 519, (S)-1-(6-(5-(1-(2-fluoroethyl)-1H-pyrazol-4-yl)-1H-pyrazolo[3,4-c]pyridin-3-yl)pyridin-2-yl)azepan-3-amine], the Ki was 0.025 nM.
`CCn1cc(-c2cc3c(-c4cccc(N5CCCC[C@H](O)C5)n4)n[nH]c3cn2)cn1` [Example 501, (S)-1-(6-(5-(1-ethyl-1H-pyrazol-4-yl)-1H-pyrazolo[3,4-c]pyridin-3-yl)pyridin-2-yl)azepan-3-ol] showed a Ki of 0.103 nM.
`Cc1n[nH]c2cnc(-c3cnccn3)cc12` [Example 118, 3-methyl-5-(pyrazin-2-yl)-1H-pyrazolo[3,4-c]pyridine] gave a Ki of 620 nM.
`NCC[C@H]1CCCN(c2cccc(-c3n[nH]c4cnc(-c5cccnc5)cc34)n2)C1` [Example 237, (R)-2-(1-(6-(5-(pyridin-3-yl)-1H-pyrazolo[3,4-c]pyridin-3-yl)pyridin-2-yl)piperidin-3-yl)ethanamine] was tested, and the Ki was 0.042 nM.
`CCn1cc(-c2cc3c(-c4ccc(=O)n(CC5(C(N)=O)CCC5)c4)n[nH]c3cn2)cn1` [Example 475, 1-((5-(5-(1-ethyl-1H-pyrazol-4-yl)-1H-pyrazolo[3,4-c]pyridin-3-yl)-2-oxopyridin-1(2H)-yl)methyl) cyclobutanecarboxamidc] gave a Ki of 4.49 nM.
Work on `C[C@H]1CN(c2cccc(-c3n[nH]c4cnc(-c5cnn(CCF)c5)cc34)n2)CCN1` [Example 503, (S)-5-(1-(2-fluoroethyl)-1H-pyrazol-4-yl)-3-(6-(3-methylpiperazin-1-yl)pyridin-2-yl)-1H-pyrazolo[3,4-c]pyridine] yielded a Ki of 0.0294 nM.
`NC1CCCN(c2cncc(-c3n[nH]c4cnc(-c5cccnc5)cc34)c2)CC1` (stereo not drawn) [Example 169, 1-(5-(5-(pyridin-3-yl)-1H-pyrazolo[3,4-c]pyridin-3-yl)pyridin-3-yl)azepan-4-amine] was tested, and the Ki was 1.35 nM.
In the case of `NC1CCN(c2cncc(-c3cc4c(-c5ccccc5F)n[nH]c4cn3)c2)CC1` [Example 157, 1-(5-(3-(2-fluorophenyl)-1H-pyrazolo[3,4-c]pyridin-5-yl)pyridin-3-yl)piperidin-4-amine], the Ki is reported as 1.31 nM.
